Reference: a melting point compilation (Tetko et al.; mined from patent text by program, amines drawn as free bases though some values may be those of a salt)

Compound | melting point [°C]
CN1C(=O)C(N)=C(C(N)=S)C1=O | 282
N#CCSc1ccc([N+](=O)[O-])cc1 | 77 to 79
C=C(C)COc1cc(C)c(NC=O)c(C)c1CC(=C)C | 109
CC1(C)CCC(C)(C)c2cc(-c3cc(-c4ccc(C(=O)O)cc4)ccc3O)ccc21 | 240 to 241
O=C(CC(CSC(=O)c1ccccc1)C(=O)O)c1ccccc1 (stereo not drawn) | 110 to 111
CC(N)=CC(=O)CS(=O)(=O)N(C)C | 137 to 140
CN(C)c1ccc(N2C(=O)C3Cc4[nH]cnc4CN3C2=S)cc1 (stereo not drawn) | 185 to 200
CC(CO)NC(=O)CCCCC1CCSS1 (stereo not drawn) | 52 to 56
CC(C)(C)c1nc2cc(N3CCN(S(C)(=O)=O)CC3)c(N)cc2s1 | 153 to 155
CN(C(F)(F)C(F)F)S(=O)(=O)c1ccccc1S(N)(=O)=O | 102 to 107
O=C(Nc1cc(CO)cc(Nc2c3ccccc3nc3ccccc23)c1)Oc1ccc(N(CCCl)CCCl)cc1 | 241 to 242
O=C(O)CC(C(=O)NC(CO)Cc1ccccc1)C1(c2ccc(-c3ccccc3)cc2)C=CNC1 (stereo not drawn) | 151 to 154
O=C(Oc1cc[nH]c(=O)c1)c1ccc([N+](=O)[O-])cc1 | 255 to 256
CC(=O)C1CC2=C(CO1)C(=O)c1ccc(O)cc1C2=O (stereo not drawn) | 169 to 170
O=C(CS(=O)(=O)N1CC=C(c2ccc(-c3ccccc3)cc2)CC1)NO | 216 to 218
Cc1cc(C(F)F)c2c(n1)C(O)CCC2 (stereo not drawn) | 101 to 104
Clc1ncnc2c1c(I)cn2C1CCOC1 (stereo not drawn) | 184 to 186
CCC(C)COc1ccc(-c2ccc(O)cc2)cc1 (stereo not drawn) | 80.5
COc1cc(C)c(C(O)c2c(C(F)(F)F)cnc(Cl)c2Cl)c(OC)c1OC (stereo not drawn) | 95 to 98
CCOC(=O)N1CCCCN1C(=S)Cl | 160 to 162

Compound | melting point [°C]
COc1cccc([C@@H]2CC[C@H](c3cccc(O)c3)N2C(=O)CNC(=O)Nc2cccc(C(=O)O)c2)c1 (relative stereo) | 172
O=C(O)c1ccc2c(c1)C=C(n1ccnc1)CC2 | 323 to 326
CSc1nc(N)c(N)c(=O)n1C | 211 to 212
NC(=O)c1c(Cl)cn2c1CN(S(=O)(=O)c1ccc(C(F)(F)F)cc1)CC2 | 159 to 160
NC(=O)CCCC(=O)NCCS | 127
CN(C)C1CCN(CCc2ccc(-c3cccc(N)n3)cc2)CC1 | 174 to 176
C=CCC(C(=O)OC)C(=O)c1cccnc1 (stereo not drawn) | 112 to 113
CC(=O)N1CCc2cc3c(cc21)C(=O)C(=O)N3 | > 250
CCC(Oc1ccccc1Br)C(=O)OC1CC(O)C=C2C=CC(C)C(CCC3CC(O)CC(=O)O3)C21 (mixture of isomers) | 160 to 162
CC(C)(C)C(=O)Nc1cc(Cl)ccc1Cl | 74 to 76
CC(C)(C)OC(=O)N[C@H](Cc1ccccc1)C(=O)N1CCC[C@H]1C(=O)NC(Cc1ccc(C#N)cc1)P(=O)(Oc1ccccc1)Oc1ccccc1 (stereo partly drawn) | 85 to 90
NC(=S)NN1CCOCC1 | 168
OC(CNC12N=CN=CC1=NC=N2)CN1CCN(C(c2ccc(F)cc2)c2ccc(F)cc2)CC1 (stereo not drawn) | 140 to 170
CC1(C)OC(=O)C(Cc2c[nH]c3ccc(Br)cc23)C(=O)O1 | 179 to 181
CCCCCCCCCCOc1ccc(-c2ccc(C#CCCC(C)OC)cc2)cc1 (stereo not drawn) | 97 to 99
CC(C)(C)C(OC(=O)Cl)=C(Oc1ccc(Cl)cc1)n1cncn1 | 159 to 161
COCC1(C)CCCOc2cc(/C=C/c3ccc(C(=O)O)cc3)ccc21 (stereo not drawn) | 194 to 196
CCC(CC)Nc1cc(C)nc2c1nnn2-c1c(C)cc(C)cc1C | 131 to 133
CCc1nc(SC)nn1-c1ccc(N)cc1 | 132
O=C(c1cc(Br)ccc1[N+](=O)[O-])C(Br)C(Br)c1ccc(Br)cc1 (stereo not drawn) | 200 to 201

Compound | melting point [°C]
CN(C)Cc1ccc(CSCCNC2=NS(=O)C(S(C)(=O)=O)=C2N)o1 (stereo not drawn) | 134 to 137
O=C1CCC(C(=O)O)C1 (stereo not drawn) | 59 to 60.5
CC(C)(NCCc1ccccc1)C(O)c1ccccc1 (stereo not drawn) | 103 to 104
O=C(O)c1ccc(CCCCCc2ccccc2)cc1 | 80 to 80.5
Cc1cccc2c(=O)cc(C3CCCC3)oc12 | 51 to 52
Nc1nc(N)c(N)c(OCC2CCCCC2)n1 | 154
CCCCn1c(=O)c2c(ncn2CCCCC(C)=O)n(CCCC)c1=O | 88
COc1ccc(-c2ccn(C)c2-c2ccc(OC)cc2)cc1 | 126 to 127
Cc1ccc(S(=O)(=O)Nc2cc3c(c(C(=O)O)c2)NCCO3)cc1 | 213 to 215
CC(=O)OCC1OC(n2cc(C)c(=O)[nH]c2=O)CC1F (stereo not drawn) | 97 to 98
NC(=O)C(=O)c1ccccc1CCl | 105 to 107
COc1cc2nc(N3CCN(C(=O)CC(C)O)CC3)nc(N)c2cc1OC (stereo not drawn) | 220 to 222
Cc1cc2c(cc1-c1c[nH]c(C=CC(=O)O)c1)C(C)(C)CCC2(C)C | 245 to 246
O=C1N=c2ccc(OCCBr)cc2=N1 | 225 to 226
CCOC(=O)c1cnn(-c2cc(C)cc(C)c2)c1C#N | 83.5 to 84.5
Clc1cccc(-c2nc(-c3ccc4c(c3)OCO4)c(-c3ccc4c(c3)OCO4)[nH]2)c1Cl | 198
NS(=O)(=O)c1cc2[nH]ccc2cc1F | 181 to 182
CN(C)CCCCNC(=O)Cn1ncc(-c2ccccc2)c1-c1ccccc1 | 77 to 79
CN(O)C(=O)Nc1c(C(=O)c2cccc(Cl)c2)[nH]c2cc(Cl)ccc12 | 205 to 206

The remaining lines, values ahead:

melting point [°C] | Compound
226 to 228 | Oc1c(Br)cc(-c2c3ccccc3c(Br)c3oc4ccccc4c23)c(O)c1Br
119 to 120 | COC(=O)c1c(C)nc2c(C)cc(C)cc2c1-c1ccccc1Cl
216 to 218 | COc1cc2nc(N3CCOCC3)n3cnnc3c2cc1OC
155 to 162 | N#Cc1cccnc1N1CCN(CCCCc2ccc(-c3csc(N)n3)cc2)CC1
270 to 273 | COc1ccc2c(=O)c(-c3nnnn3C)cn(C)c2c1
174 to 177 | O=C(O)C=NOC(CCCc1ccc(Cl)cc1)c1ccc(OCc2ccc3ccccc3n2)cc1 (stereo not drawn)
119 to 121 | COC(=O)c1ccccc1-c1ccc(C)cc1
110 to 114 | Cc1ncsc1C(=O)Nc1ccc(-n2nc(C3CC3)cc2C2CC2)cc1
137 to 138 | c1ccc(-c2nc3cc(COc4ccc(CCCn5ccnc5)cc4)ccc3o2)cc1
122 to 124 | Cc1c(CC2CCc3c(c4ccccc4n3C)C2=O)ncn1S(=O)(=O)N(C)C (stereo not drawn)
122 to 124 | COc1ccc2oc(N(C=O)[C@@H](Cc3ccccn3)c3ncc(-c4ccc(N5CCOCC5)cc4)n3C)cc2c1
125 to 127 | CCCS(=O)c1c2ccccc2nc2c1c(C)nn2-c1ccccn1 (stereo not drawn)
165 to 166 | CCOc1ccc(Cn2cnc3c(-c4ccco4)ncnc32)cc1
70 to 72 | CCOC(=O)C1CCc2c(c3ccccc3n2C(=O)c2ccc(C)cc2)C1 (stereo not drawn)
219 | Cn1cc(-n2c(-c3cccc(F)c3)nc3c(Cl)ncnc32)ccc1=O
138 to 139 | COc1cc(OC)c2c(C)c(CCN3CCN(c4cccc(C(F)(F)F)c4)CC3)c(=O)oc2c1
201 | O=c1cc2ccccc2c[nH]1
78 to 80 | Cc1cc2ccccc2n1-c1ccnc2ccccc12
164 to 166 | CCOCC1OC(n2cnc3c(NCc4cccc(I)c4)ncnc32)C(O)C1O (stereo not drawn)
196 to 197 | COc1ccc(C(=O)N2CCC(Nc3nccc(-c4c(-c5ccc(F)cc5)nc5occn45)n3)CC2)cc1
251 to 252 | CS(=O)(=O)c1ccc(Oc2cc(OCc3ccccc3)c3[nH]c(C(N)=O)cc3c2)cc1
277 to 281 | O=C(Nc1nc(-c2ccco2)c(-c2ccncc2)s1)c1cc[nH]c(=O)c1

melting point [°C] | Compound
171 to 176 | Cc1nc(-c2cnc3[nH]cc(C(=O)N[C@@H](C(=O)N4CC(C#N)C4)C(C)(C)C)c3n2)cn1-c1cccc(F)c1
241 to 245 | CC(C)(C)CN1C(=O)[C@H](CC(=O)O)O[C@@H](c2ccccc2Cl)c2cc(Cl)ccc21
188 to 191 | CCn1nc(NC(=O)NS(=O)(=O)c2ccccc2C(=O)OC)nc1SC
275 to 277 | O=C(Nc1nnn[nH]1)c1csc(-c2ccco2)n1
98 to 100 | Fc1ccc(-c2c[nH]c3ccccc23)cc1
112 to 113 | Nc1cc(SCc2ccc(F)cc2)nn1-c1c(Cl)cc(C(F)(F)F)cc1Cl
79 to 81 | Cc1ccc(NCC2CCN(C(C)C3CC3)CC2)c(C(=O)Nc2ccc(Cl)cn2)c1 (stereo not drawn)
107 to 109 | CCOc1cc(F)ccc1C(=O)c1ccc(OC)c(Cl)c1Cl
235 | O=c1nc(-c2ccccn2)sc2ncccc12
105 to 109 | CCOC(=O)C(=O)C(C#N)c1cccc(Oc2ccccc2)c1 (stereo not drawn)
246 to 249 | COc1cc2c(Nc3ccc(Cl)cc3F)ncnc2cc1OCCN1CCS(=O)(=O)CC1
127 to 130 | COc1ccc(C(O)C(=O)c2ccccc2)cc1F (stereo not drawn)
99.2 to 101 | COc1cc(OC)cc(-c2ncn(C)c2-c2ccc(OC(F)F)c(N)c2)c1
199 to 202 | O=C(O)Cc1ccc2cc(OCc3ccc4ccccc4n3)ccc2c1
146 to 148 | CC(=O)c1c(C)[nH]c(C(C)c2ccccc2)c1C (stereo not drawn)
50 to 60 | CCCCOC(=O)c1ccc(C(=O)c2ccccc2)cc1
238 | C#CCn1c(=O)c2c(nc(C#Cc3cccc(OC(C)=O)c3)n2C)n(C)c1=O
239 to 241 | Cn1cnnc1COc1nn2c(-c3cc(Cl)on3)nnc2c2ccccc12
148 to 150 | O=C(NCCO)c1cccc(-c2cccn3c(=O)n(Cc4cccc(C(F)(F)F)c4)nc23)c1
156 to 157 | CC(C)n1nc(-c2c(-c3ccccc3)nn3ccc(C(=O)NCCOc4ccccc4)cc23)ccc1=O
238 to 239 | O=C(CSc1ccccc1)c1ccc2[nH]c3ncc(Cl)cc3c2c1
178 to 180 | O=Cc1c2ccsc2cc2c1ccc1ccccc12
